Laboratory results as given in US10117837B2, “Methods of preparing stimuli-responsive multifunctional nanoparticles” (priority 2017, dated 2018).

Key:
[1] = system: OVCAR-3/luc orthotopic ovarian tumor; test: Anti-tumor effect in orthotopic ovarian tumor xenograft model, ROI size by bioluminescence imaging; type: in vivo, nude mice; conditions: day 20, dose equivalent to 5 mg/kg of DOX via tail vein
Text: The orthotopic human ovarian cancer xenograft model was established using 6-8 week old female athymic nude mice purchased from National Laboratory Animal Center (Taipei, Taiwan). All mouse procedures were approved by the Institutional Animal Care and Use Committee (IACUC) of National Tsing Hua University. Prior to surgery, the mouse was laid dorsal side up under anesthetic. The incision was made left or right of the midline and directly above the ovarian fat pad. The ovarian fat pad was gently pulled out and rested onto a sterile saline soaked gauze pad. Under a dissecting microscope, the ovary was allowed for the insertion of a 30 gauge needle into the bursa. Suspension (1×10^6) of OVCAR-3/luc cells in a maximum volume of […] was slowly injected between the bursa and the ovary. […]
Growth of tumor was monitored by bioluminescence imaging (BLI) using in vivo imaging system (Caliper Life Sciences). […] Prior to being monitored, the tumor-implanted mice were injected intraperitoneally with 150 mg/kg of D-luciferin substrate. The Regions of Interest (ROIs) in tumor area were selected and used for quantification of tumor size by the software provided by the Caliper Life Sciences. Volumes or sizes of ROIs were calculated as L×W^2/2, where L was the largest and W was the smallest diameter of each ROI. […]

OVCAR-3 cells [2] = test: Cellular uptake by fluorescence microscopy in OVCAR-3 cells; type: cell-based, human; conditions: 4 hours, equivalent to 50 mg/mL DOX
Description: The cellular uptake of the stimuli-responsive multifunctional nanoparticle of the present invention and the intracellular drug delivery were investigated by fluorescence microscopy. Human ovarian cancer cells OVCAR-3 and mouse embryonic fibroblasts NIH3T3 were cultured to 70-80% confluence and seeded onto 4-well chamber slides (BD Falcon, USA) at a density of 1×10^5 cells/well. After incubation at 37° C. for 24 hours, DOX.HCl, the HA-cys-ADOX nanoparticles (referred to as HA NPs), or the LHRH-HA-cys-ADOX nanoparticles (referred to as LHRH NPs) dissolved in DMEM at concentrations equivalent to 50 mg/mL DOX was added to the cells for a 2-hour incubation at 37° C. Cells treated with DMEM were the negative control group (NC). Next, fluorescent dyes Lysotracker Green and DAPI in DMEM were sequentially added to the abovementioned cells to stain endosome/lysosome for 2 hours and nuclei for 1 hour. After all the reagents were removed, the cells were washed with PBS (pH 7.4) three times, followed by addition of a mounting medium to fix the cells and prevent fluorescence fading. Cells were examined using a fluorescent microscope (Zeiss, Germany).

[3] = system: OVCAR-3/luc orthotopic ovarian tumor; test: H&E staining of ovarian tumor sections; type: in vivo, nude mice; conditions: after 20 days of treatment
Description: (§1) Tumors and normal ovaries from mice with different treatments were collected for histological assay after mice were sacrificed. […] paraffin tissue sections were prepared for analysis. Morphology of tumors and normal ovaries were examined by haematoxylin and eosin (H&E) staining. TUNEL staining were used for the live/dead assay in the tissue sections using DeadEnd™ Fluorometric TUNEL System (Promega, USA). Tissue sections were examined at magnification of 400× using fluorescent microscope (Zeiss, Germany).
(§2) The therapeutic effect of the stimuli-responsive multifunctional nanoparticle of the present invention on ovarian cancer cells was further analyzed histologically after the mice were treated differently as mentioned above for 20 days and sacrificed.

OVCAR-3 cells [4] = test: Cell viability (MTS assay) in OVCAR-3 cells; type: cell-based, human; conditions: OVCAR-3, 48 hours, various concentrations
Description: (§3) The cytotoxicity and anticancer effect of the stimuli-responsive multifunctional nanoparticle of the present invention was evaluated by cell viability assay in NIH3T3 and OVCAR-3 cells. The cells were seeded in a 96-well plate at a density of 5×10^3 cells/well and incubated at 37° C. for 24 hours. Next, DOX.HCl, the HA-cys-ADOX nanoparticles, or the LHRH-HA-cys-ADOX nanoparticles dissolved in DMEM at predetermined concentrations equivalent to DOX was added to the cells. Cells treated with DMEM were the negative control group. After incubation at 37° C. for 48 hours, the cells were washed with PBS (pH 7.4). Cell viability was measured by MTS assay (CellTiter 96® AQueous One Solution Cell Proliferation Assay (Promega, USA)) according to the manufacturer's instructions and calculated as the ratio of light absorbance at […] of the experimental group to that of the negative control group.

[5] = system: OVCAR-3/luc orthotopic ovarian tumor; test: TUNEL staining of ovarian tumor sections; type: in vivo, nude mice; conditions: after 20 days of treatment
Description: as §1, §2

NIH3T3 cells = test: Cell viability (MTS assay) in NIH3T3 cells; type: cell-based, mouse; conditions: NIH3T3, 48 hours, various concentrations
Description: as §3

## COc1cccc2c1C(=O)c1c(O)c3c(c(O)c1C2=O)C[C@@](O)(C(=O)CO)C[C@@H]3O[C@H]1C[C@H](N)[C@H](O)[C@H](C)O1.Cl [free DOX, doxorubicin hydrochloride]
[1]
  ROI size relative to that of the LHRH-NPs/Cy5.5-treated mice: 4.3 fold
OVCAR-3 cells [2]
  difference in intensity of intracellular DOX fluorescence between OVCAR-3 and NIH3T3 cells: no difference
[3]
  tumor cell morphology (H&E staining): cell proliferation with dense nuclei in random pattern
OVCAR-3 cells [4]
  cytotoxicity / anticancer effect: dose-dependent
[5]
  TUNEL fluorescence signal (apoptotic cells) in tumors: no significant TUNEL fluorescence signal
NIH3T3 cells
  cytotoxicity: dose-dependent
